Experiments:
[1] = molecular target: Lysosomal alpha-glucosidase (Mus musculus, UniProt P70699); experiment: Inhibition of liver glucosidase in Swiss mouse liver extracts
[2] = molecular target: T1, Pancreatic alpha-amylase (Sus scrofa, UniProt P00690); experiment: Inhibition of porcine pancreatic alpha amylase using starch as substrate by Bernfeld method
T1 sequence (P00690 whole entry): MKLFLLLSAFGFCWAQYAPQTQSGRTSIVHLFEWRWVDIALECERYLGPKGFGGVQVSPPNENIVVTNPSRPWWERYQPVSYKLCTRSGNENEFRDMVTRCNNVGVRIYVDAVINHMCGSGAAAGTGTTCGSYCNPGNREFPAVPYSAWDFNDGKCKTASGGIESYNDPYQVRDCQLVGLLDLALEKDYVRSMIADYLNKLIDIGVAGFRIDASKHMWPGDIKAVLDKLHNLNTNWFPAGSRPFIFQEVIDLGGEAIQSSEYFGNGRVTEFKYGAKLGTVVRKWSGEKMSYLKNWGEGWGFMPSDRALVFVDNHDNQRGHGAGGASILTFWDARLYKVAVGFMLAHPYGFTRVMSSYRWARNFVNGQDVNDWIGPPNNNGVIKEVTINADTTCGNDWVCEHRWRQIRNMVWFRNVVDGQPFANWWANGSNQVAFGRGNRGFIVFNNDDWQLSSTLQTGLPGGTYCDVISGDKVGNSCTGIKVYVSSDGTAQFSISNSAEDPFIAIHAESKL

[3] = Inhibition of intestinal glucosidase in Swiss mouse intestinal extracts
[4] = Inhibition of pancreatic glucosidase in Swiss mouse pancreatic extracts

Lysosomal alpha-glucosidase, sequence (P70699 whole entry): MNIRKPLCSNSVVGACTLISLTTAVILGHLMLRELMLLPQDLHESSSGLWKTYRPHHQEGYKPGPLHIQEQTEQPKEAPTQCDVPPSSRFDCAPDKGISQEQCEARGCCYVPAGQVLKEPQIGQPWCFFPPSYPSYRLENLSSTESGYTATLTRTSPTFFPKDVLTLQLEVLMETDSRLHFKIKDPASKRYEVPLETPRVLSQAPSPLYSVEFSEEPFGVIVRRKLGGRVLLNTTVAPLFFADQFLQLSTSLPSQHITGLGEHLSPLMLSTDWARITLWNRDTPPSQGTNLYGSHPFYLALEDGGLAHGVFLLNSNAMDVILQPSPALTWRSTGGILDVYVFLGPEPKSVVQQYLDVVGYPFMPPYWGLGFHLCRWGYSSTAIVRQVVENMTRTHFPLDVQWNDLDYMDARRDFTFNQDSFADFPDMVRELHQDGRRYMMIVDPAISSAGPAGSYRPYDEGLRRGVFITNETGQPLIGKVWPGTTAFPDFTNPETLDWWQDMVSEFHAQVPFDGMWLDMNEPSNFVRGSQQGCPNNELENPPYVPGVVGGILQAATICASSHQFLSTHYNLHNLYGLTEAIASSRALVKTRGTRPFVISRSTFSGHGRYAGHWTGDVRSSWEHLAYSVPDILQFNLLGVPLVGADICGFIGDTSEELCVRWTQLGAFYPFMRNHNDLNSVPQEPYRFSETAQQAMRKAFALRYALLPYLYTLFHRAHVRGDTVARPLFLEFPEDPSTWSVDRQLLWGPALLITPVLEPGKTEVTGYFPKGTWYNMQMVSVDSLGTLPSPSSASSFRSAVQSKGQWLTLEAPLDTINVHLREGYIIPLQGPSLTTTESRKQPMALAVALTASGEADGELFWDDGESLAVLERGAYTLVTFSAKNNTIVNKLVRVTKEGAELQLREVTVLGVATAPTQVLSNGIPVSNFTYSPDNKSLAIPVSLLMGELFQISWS

SMILES	IC50 [1] [µM]	IC50 [2] [µM]	IC50 [3]	IC50 [4] [µM]	IC50 ([3]; read-out: IC50) [µM]
N#C/C=C1\C=C(c2ccc(Br)cc2)N=C2Sc3ccccc3N21	28.2	15.3	Not Active	23	–
N#C/C=C1\C=C(c2ccccc2)N=C2Sc3ccccc3N21	23.5	23	–	21.4	32.6
N#C/C=C1\C=C(c2ccc(Cl)cc2)N=C2Sc3ccccc3N21	22	21.9	–	17.4	17.6
N#C/C=C1\C=C(c2ccc(F)cc2)N=C2Sc3ccccc3N21	25	24.4	–	17.5	37.3
COc1ccc2c(c1)SC1=NC(c3ccc(F)cc3)=C/C(=C\C#N)N12	21.1	20.6	–	19	30.4
N#C/C=C1\C=C(c2ccc3ccccc3c2)N=C2Sc3ccccc3N21	21.2	19.9	–	22.9	22.6
COc1ccc2c(c1)SC1=NC(c3ccc4ccccc4c3)=C/C(=C\C#N)N12	15.9	18.7	–	30.3	62.5
COc1ccc2c(c1)SC1=NC(c3ccc(Cl)cc3)=C/C(=C\C#N)N12	19.7	20.2	–	20.7	25.9
Cc1ccc(C2=C/C(=C\C#N)N3C(=N2)Sc2ccccc23)cc1	20.3	23.2	–	34.9	36.1
COc1ccc2c(c1)SC1=NC(c3ccc(C)cc3)=C/C(=C\C#N)N12	18.3	19.5	–	29.5	27.4
COc1ccc2c(c1)SC1=NC(c3ccccc3)=C/C(=C\C#N)N12	25	22.3	–	29.2	41.6
CCOc1ccc2c(c1)SC1=NC(c3ccccc3)=C/C(=C\C#N)N12	18.7	21.8	–	46.1	38.6
COc1ccc2c(c1)SC1=NC(c3ccc(Br)cc3)=C/C(=C\C#N)N12	14.1	17.4	–	33.8	30.5
C[C@H]1O[C@H](O[C@H]2[C@H](O)[C@@H](O)[C@@H](O[C@H]3[C@H](O)[C@@H](O)C(O)O[C@@H]3CO)O[C@@H]2CO)[C@H](O)[C@@H](O)[C@@H]1N[C@H]1C=C(CO)[C@@H](O)[C@H](O)[C@H]1O (stereo not given in full) [ACARBOSE]	> 100	–	Not Active	> 100	–

Source: ChEMBL document CHEMBL2203065, “Synthesis and glycosidase inhibitory activity of novel (2-phenyl-4H-benzopyrimedo[2,1-b]-thiazol-4-yliden)acetonitrile derivatives” (Bioorg Med Chem Lett, 2012)
